This is an account of results in patent US11254686B1 (Corvus Pharmaceuticals, Inc., priority 2017, dated 2022).

Bounds are passed on as bounds.

Type in all cases: biochemical
In one test the target is adenosine A3 receptor (Homo sapiens (Human), UniProt P0DMS8). The test can be described thus: Adenosine receptor activity assay (Table 1), A3 cAMP. The procedure: (§1) Table 1. Compounds (e.g., Adenosine Receptor modulators) and activity assay results. The legend is as follows: A=<10 nM; B=10-50 nM; C=50-100 nM; D=100-500; and E=>500 nM. The ratio corresponds to the A2A activity to the A2B activity; or A2A/A2B.

A further test deals with adenosine A2B receptor (Homo sapiens (Human), UniProt P29275). The test can be described thus: Adenosine receptor activity assay (Table 1), A2B activity. As to conditions: for Ratio: A2A activity to the A2B activity, A2A/A2B; for IC50: read-out: Ave A2B cAMP IC50.
Another test addresses adenosine A1 receptor (Homo sapiens (Human), UniProt P30542). Briefly: Adenosine receptor activity assay (Table 1), A1 cAMP. As to the method:
as §1

In a further test the target is adenosine A2A receptor (Homo sapiens (Human), UniProt P29274). Briefly: Adenosine receptor activity assay (Table 1), A2A activity. The following applies: read-out: Ave A2A cAMP IC50.
Chain of adenosine A2A receptor (P29274 whole entry): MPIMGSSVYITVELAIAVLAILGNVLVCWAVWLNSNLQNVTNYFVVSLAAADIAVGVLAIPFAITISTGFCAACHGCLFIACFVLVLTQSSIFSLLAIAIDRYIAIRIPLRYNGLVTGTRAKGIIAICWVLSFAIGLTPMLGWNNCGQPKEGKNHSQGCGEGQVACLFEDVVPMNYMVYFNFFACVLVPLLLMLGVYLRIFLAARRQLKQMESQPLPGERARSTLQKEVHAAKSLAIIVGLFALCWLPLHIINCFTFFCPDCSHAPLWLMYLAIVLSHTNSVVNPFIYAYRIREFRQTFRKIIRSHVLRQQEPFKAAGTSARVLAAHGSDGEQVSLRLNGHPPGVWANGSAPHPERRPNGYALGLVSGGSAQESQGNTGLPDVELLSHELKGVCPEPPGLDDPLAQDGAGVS

Chain of adenosine A1 receptor (P30542 whole entry): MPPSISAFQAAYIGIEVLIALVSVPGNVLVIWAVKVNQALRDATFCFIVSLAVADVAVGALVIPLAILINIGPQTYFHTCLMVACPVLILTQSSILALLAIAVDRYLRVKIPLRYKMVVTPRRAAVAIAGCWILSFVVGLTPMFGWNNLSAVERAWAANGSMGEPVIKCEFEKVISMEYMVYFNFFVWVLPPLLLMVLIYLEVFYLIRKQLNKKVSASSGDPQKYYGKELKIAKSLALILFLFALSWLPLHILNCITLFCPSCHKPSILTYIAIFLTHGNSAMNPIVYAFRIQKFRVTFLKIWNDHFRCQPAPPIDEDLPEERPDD
Chain of adenosine A3 receptor (P0DMS8 whole entry): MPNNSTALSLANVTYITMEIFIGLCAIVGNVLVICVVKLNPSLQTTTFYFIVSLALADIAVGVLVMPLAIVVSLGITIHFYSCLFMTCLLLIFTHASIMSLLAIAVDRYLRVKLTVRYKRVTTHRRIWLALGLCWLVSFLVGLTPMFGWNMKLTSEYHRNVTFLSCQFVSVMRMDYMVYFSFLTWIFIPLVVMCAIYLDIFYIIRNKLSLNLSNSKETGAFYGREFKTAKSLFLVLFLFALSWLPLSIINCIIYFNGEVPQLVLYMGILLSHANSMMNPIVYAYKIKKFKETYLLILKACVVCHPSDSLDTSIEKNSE
Chain of adenosine A2B receptor (P29275 whole entry): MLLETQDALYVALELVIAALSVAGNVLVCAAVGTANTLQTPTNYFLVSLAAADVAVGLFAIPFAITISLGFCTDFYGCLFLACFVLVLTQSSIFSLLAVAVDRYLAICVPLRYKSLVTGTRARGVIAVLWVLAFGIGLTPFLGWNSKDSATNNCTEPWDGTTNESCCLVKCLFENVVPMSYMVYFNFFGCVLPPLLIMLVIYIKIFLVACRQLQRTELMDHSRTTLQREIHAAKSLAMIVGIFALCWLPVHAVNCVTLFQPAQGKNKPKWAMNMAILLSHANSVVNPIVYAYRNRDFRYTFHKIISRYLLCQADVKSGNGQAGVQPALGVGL

In the case of `Cc1cc2nc(N[C@@H](C)c3ccccn3)nc(C(=O)N3CC(CNC(=O)OC(C)(C)C)C3)c2s1` [Example Z476, tert-Butyl (S)-((1-(6-methyl-2-((1-(pyridin-2-yl)ethyl)amino)thieno[3,2-d]pyrimidine-4-carbonyl)azetidin-3-yl)methyl)carbamate], the IC50 at adenosine A3 receptor was more than 500 nM; on adenosine A2B receptor, 10 to 50 nM; on adenosine A1 receptor, more than 500 nM; on adenosine A2A receptor, 100 to 500 nM. Further, the Ratio at adenosine A2B receptor is on record as 5.27.

Turning to `COc1ccc(CNC(=O)c2nc(N[C@@H](C)c3ccccn3)nc3cc(C)sc23)cc1` [Example Z477, (S)—N-(4-Methoxybenzyl)-6-methyl-2-((1-(pyridin-2-yl)ethyl)amino)thieno[3,2-d]pyrimidine-4-carboxamide], the IC50 on adenosine A3 receptor lay in the range of 50 to 100 nM; at adenosine A2B receptor it was 10 to 50 nM; against adenosine A1 receptor, 50 to 100 nM; on adenosine A2A receptor, 100 to 500 nM. Also, on adenosine A2B receptor, the Ratio is on record as 9.73.

With `Cc1cc2nc(N[C@@H](C)c3cncc(F)c3)nc(C(=O)N3CC(CN)C3)c2s1` [Example Z478, (S)-(3-(Aminomethyl)azetidin-1-yl)(2-((1-(5-fluoropyridin-3-yl)ethyl)amino)-6-methylthieno[3,2-d]pyrimidin-4-yl)methanone], the IC50 at adenosine A3 receptor was more than 500 nM; on adenosine A2B receptor, 10 to 50 nM; at adenosine A1 receptor it was more than 500 nM; on adenosine A2A receptor, more than 500 nM. Also, the Ratio on adenosine A2B receptor is on record as 167.42.

Consider `Cc1cc2nc(N[C@@H](C)c3ccccn3)nc(C(=O)N3CC(CN)C3)c2s1` [Example Z479, (S)-(3-(Aminomethyl)azetidin-1-yl)(6-methyl-2-((1-(pyridin-2-yl)ethyl)amino)thieno[3,2-d]pyrimidin-4-yl)methanone], for which the IC50 is more than 500 nM against adenosine A3 receptor, 10 to 50 nM on adenosine A2B receptor, more than 500 nM on adenosine A1 receptor and more than 500 nM on adenosine A2A receptor. Moreover, the Ratio at adenosine A2B receptor worked out at 96.36.

Consider `Cc1cc2nc(N[C@@H](C)c3ccccn3)nc(C(N)=O)c2s1` [Example Z480, (S)-6-Methyl-2-((1-(pyridin-2-yl)ethyl)amino)thieno[3,2-d]pyrimidine-4-carboxamide], for which the IC50 was more than 500 nM against adenosine A3 receptor, 10 to 50 nM on adenosine A2B receptor, more than 500 nM on adenosine A1 receptor and more than 500 nM on adenosine A2A receptor. In addition, the Ratio on adenosine A2B receptor was determined as 47.68.

Turning to `Cc1cc2nc(N[C@@H](C)c3cncc(F)c3)nc(C(=O)N3CC(N(C)C)C3)c2s1` [Example Z481, (S)-(3-(Dimethylamino)azetidin-1-yl)(2-((1-(5-fluoropyridin-3-yl)ethyl)amino)-6-methylthieno[3,2-d]pyrimidin-4-yl)methanone], the IC50 was more than 500 nM against adenosine A3 receptor, 10 to 50 nM at adenosine A2B receptor, more than 500 nM against adenosine A1 receptor and more than 500 nM on adenosine A2A receptor. Besides, the Ratio at adenosine A2B receptor was determined as 111.93.

Turning to `COC1(C)CN(C(=O)c2nc(N[C@@H](C)c3ccccn3)nc3cc(C)sc23)C1` [Example Z483, (S)-(3-Methoxy-3-methylazetidin-1-yl)(6-methyl-2-((1-(pyridin-2-yl)ethyl)amino)thieno[3,2-d]pyrimidin-4-yl)methanone], the IC50 was more than 500 nM against adenosine A3 receptor, 10 to 50 nM on adenosine A2B receptor, more than 500 nM against adenosine A1 receptor and 100 to 500 nM on adenosine A2A receptor. Besides, at adenosine A2B receptor, the Ratio came to 30.60.

Turning to `Cc1cc2nc(N[C@@H](C)c3cncc(F)c3)nc(C(=O)NCCC3CN(C(=O)OC(C)(C)C)C3)c2s1` [Example Z485, tert-Butyl (S)-3-(2-(2-((1-(5-fluoropyridin-3-yl)ethyl)amino)-6-methylthieno[3,2-d]pyrimidine-4-carboxamido)ethyl)azetidine-1-carboxylate], the 50% inhibitory concentration (IC50) against adenosine A3 receptor was more than 500 nM; on adenosine A2B receptor, 10 to 50 nM; on adenosine A1 receptor, 100 to 500 nM; at adenosine A2A receptor, 100 to 500 nM. For the same molecule, the Ratio on adenosine A2B receptor is listed as 8.16.

For `CC(=O)Nc1ccc(CCNC(=O)c2nc(N[C@@H](C)c3cncc(F)c3)nc3cc(C)sc23)cc1` [Example Z488, (S)—N-(4-Acetamidophenethyl)-2-((1-(5-fluoropyridin-3-yl)ethyl)amino)-6-methylthieno[3,2-d]pyrimidine-4-carboxamide], the half-inhibitory concentration (IC50) against adenosine A3 receptor was more than 500 nM; at adenosine A2B receptor, less than 10 nM; against adenosine A1 receptor, more than 500 nM; at adenosine A2A receptor it was more than 500 nM. Also, the Ratio at adenosine A2B receptor turned out to be 147.08.

Turning to `Cc1cc2nc(N[C@@H](C)c3cncc(F)c3)nc(C(=O)NCC[C@@H]3CCNC3)c2s1` [Example Z489, 2-(((S)-1-(5-Fluoropyridin-3-yl)ethyl)amino)-6-methyl-N-(2-((S)-pyrrolidin-3-yl)ethyl)thieno[3,2-d]pyrimidine-4-carboxamide], the IC50 against adenosine A3 receptor was more than 500 nM; at adenosine A2B receptor, 10 to 50 nM; against adenosine A1 receptor, more than 500 nM; at adenosine A2A receptor, more than 500 nM. Further, the Ratio at adenosine A2B receptor was found to be 365.84.

Turning to `Cc1cc2nc(N[C@@H](C)c3cncc(F)c3)nc(C(=O)N3CC(CNC(=O)C(C)(C)C)C3)c2s1` [Example Z490, (S)—N-((1-(2-((1-(5-Fluoropyridin-3-yl)ethyl)amino)-6-methylthieno[3,2-d]pyrimidine-4-carbonyl)azetidin-3-yl)methyl)pivalamide], the concentration for half-maximal inhibition (IC50) against adenosine A3 receptor was more than 500 nM; at adenosine A2B receptor, 10 to 50 nM; on adenosine A1 receptor, more than 500 nM; at adenosine A2A receptor, 100 to 500 nM. Also, the Ratio on adenosine A2B receptor stood at 10.96.

In the case of `Cc1cc2nc(N[C@@H](C)c3cncc(F)c3)nc(C(=O)N3CC[C@@H](NC(=O)OCc4ccccc4)C3)c2s1` [Example Z491, Benzyl ((R)-1-(2-(((S)-1-(5-fluoropyridin-3-yl)ethyl)amino)-6-methylthieno[3,2-d]pyrimidine-4-carbonyl)pyrrolidin-3-yl)carbamate], the half-maximal inhibitory concentration (IC50) is more than 500 nM on adenosine A3 receptor, 10 to 50 nM on adenosine A2B receptor, more than 500 nM against adenosine A1 receptor and more than 500 nM at adenosine A2A receptor. For the same molecule, the Ratio at adenosine A2B receptor came out at 86.94.

Take `Cc1cc2nc(N[C@@H](C)c3ccccn3)nc(C(=O)NCc3nccs3)c2s1` [Example Z492, (S)-6-Methyl-2-((1-(pyridin-2-yl)ethyl)amino)-N-(thiazol-2-ylmethyl)thieno[3,2-d]pyrimidine-4-carboxamide]: the half-maximal inhibitory concentration (IC50) at adenosine A3 receptor is 10 to 50 nM; at adenosine A2B receptor, 10 to 50 nM; against adenosine A1 receptor, more than 500 nM; on adenosine A2A receptor, 100 to 500 nM. For the same molecule, at adenosine A2B receptor, the Ratio is 8.25.

For the molecule `Cc1cc2nc(N[C@@H](C)c3cncc(F)c3)nc(C(=O)N3CC(CO)C3)c2s1` [Example Z494, (S)-(2-((1-(5-Fluoropyridin-3-yl)ethyl)amino)-6-methylthieno[3,2-d]pyrimidin-4-yl)(3-(hydroxymethyl)azetidin-1-yl)methanone], the 50% inhibitory concentration (IC50) at adenosine A3 receptor was more than 500 nM; on adenosine A2B receptor, less than 10 nM; against adenosine A1 receptor, more than 500 nM; at adenosine A2A receptor it was 100 to 500 nM. At adenosine A2B receptor, the Ratio turned out to be 146.92.

As to `CCNC(=O)CC1CN(C(=O)c2nc(N[C@@H](C)c3cncc(F)c3)nc3cc(C)sc23)C1` [Example Z495, (S)—N-Ethyl-2-(1-(2-((1-(5-fluoropyridin-3-yl)ethyl)amino)-6-methylthieno[3,2-d]pyrimidine-4-carbonyl)azetidin-3-yl)acetamide], the concentration for half-maximal inhibition (IC50) at adenosine A3 receptor was 50 to 100 nM; at adenosine A2B receptor, less than 10 nM; against adenosine A1 receptor, more than 500 nM; on adenosine A2A receptor, 50 to 100 nM. At adenosine A2B receptor, the Ratio is 23.37.

In the case of `Cc1cc2nc(N[C@@H](C)c3cncc(F)c3)nc(C(=O)NCCC3CCNCC3)c2s1` [Example Z496, (S)-2-((1-(5-Fluoropyridin-3-yl)ethyl)amino)-6-methyl-N-(2-(piperidin-4-yl)ethyl)thieno[3,2-d]pyrimidine-4-carboxamide], the IC50 against adenosine A3 receptor was more than 500 nM; on adenosine A2B receptor it was 10 to 50 nM; on adenosine A1 receptor, more than 500 nM; at adenosine A2A receptor, more than 500 nM. Moreover, at adenosine A2B receptor, the Ratio is reported as 524.78.

For `Cc1cc2nc(N[C@@H](C)c3cncc(F)c3)nc(C(=O)N3CC(C(N)=O)C3)c2s1` [Example Z504, (S)-1-(2-((1-(5-Fluoropyridin-3-yl)ethyl)amino)-6-methylthieno[3,2-d]pyrimidine-4-carbonyl)azetidine-3-carboxamide], the IC50 at adenosine A3 receptor is more than 500 nM; on adenosine A2B receptor, less than 10 nM; against adenosine A1 receptor it was more than 500 nM; on adenosine A2A receptor it was more than 500 nM. For the same molecule, the Ratio at adenosine A2B receptor came to 287.41.

On to `CCNC(=O)c1ccc(CCNC(=O)c2nc(N[C@@H](C)c3cncc(F)c3)nc3cc(C)sc23)cc1` [Example Z506, (S)—N-(4-(Ethylcarbamoyl)phenethyl)-2-((1-(5-fluoropyridin-3-yl)ethyl)amino)-6-methylthieno[3,2-d]pyrimidine-4-carboxamide], for which the IC50 is more than 500 nM at adenosine A3 receptor, 10 to 50 nM at adenosine A2B receptor, more than 500 nM on adenosine A1 receptor and more than 500 nM on adenosine A2A receptor. Besides, the Ratio at adenosine A2B receptor was 22.42.

`CCOC(=O)N(C)C1CN(C(=O)c2nc(N[C@@H](C)c3cncc(F)c3)nc3cc(C)sc23)C1` [Example Z507, Ethyl (S)-(1-(2-((1-(5-fluoropyridin-3-yl)ethyl)amino)-6-methylthieno[3,2-d]pyrimidine-4-carbonyl)azetidin-3-yl)(methyl)carbamate]: the IC50 against adenosine A3 receptor is more than 500 nM; at adenosine A2B receptor, 10 to 50 nM; on adenosine A1 receptor, more than 500 nM; at adenosine A2A receptor, 50 to 100 nM. The Ratio at adenosine A2B receptor turned out to be 5.66.
